In ChEMBL document CHEMBL1157865, “Synthesis and evaluation of SQ109 analogues as potential anti-tuberculosis candidates” (2010):
Converted amounts (≈) assume the structure as drawn.

The molecules below were run on Mycobacterium tuberculosis (assay: Antimycobacterial activity against multidrug-resistant Mycobacterium tuberculosis XDR 173 by BACTEC 460 radiometric method).
Format: functional
Molecule `CC(C)=CCC/C(C)=C/CC/C(C)=C/CNCCNC1C2CC3CC(C2)CC1C3` (centres undefined) has an MIC of 0.25 µM (≈ 0.0997 µg/mL).
Molecule `CC(C)CCCC(C)CCCC(C)CCNCCNC1C2CC3CC(C2)CC1C3` (centres undefined) has an MIC of 1 µM (≈ 0.405 µg/mL).
In the case of `CC(C)CCCC(C)CCNCCNC12CC3CC(CC(C3)C1)C2` (centres undefined), the MIC is reported as 0.5 µM (≈ 0.167 µg/mL).
Molecule `CC(C)=CCC/C(C)=C/CNCCNC1C2CC3CC(C2)CC1C3` (centres undefined) [SQ109] has an MIC of 0.5 µM (≈ 0.165 µg/mL).
